Experimental findings from US9730906B2, “α-derivatives of cis-monounsaturated fatty acids for use as medicines” (UNIVERSITAT DE LES ILLES BALEARS, priority 2008, dated 2017) are described below.

SMILES strings stand for the structures.

In one experiment the test system is A549 cells. In words: Growth/viability of A549 lung cancer cells in culture (cell count). It is filed as cell-based, human. On the set-up: key to Anti-tumour effect: + [inhibition of growth]; ++ [total halt of growth]; +++ [total removal of tumour cells]. The note with it: for IC50: concentration that reduces the number of cells to half. The method, boiled down:
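A549 cells were grown in RPMI with 10% serum at 37 °C under 5% CO2 and exposed to fatty-acid derivatives at 0–400 μM, or at 150 μM for 48 h. Cell number was counted by flow cytometry and expressed as percent of untreated control.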

For another experiment, the system named is SF767 human tumour cells. In words: Growth of SF767 tumour cells in culture. The following applies: for IC50: concentration that reduces the number of cells to half. It is filed as cell-based. On the set-up: key to Anti-tumour effect: + [inhibition of growth]; ++ [total halt of growth]; +++ [total removal of tumour cells]; key to Mechanism of action: P [anti-proliferative]; D [differentiation]; A [apoptosis]. As for the experimental part: In a second experimental series, designed to discover whether these molecules are effective in treatment of different types of tumours, the effect of OHOD at various concentrations on human cells of different types of cancer was studied. These experiments were performed as described before, except that the M220 and HT-29 cell lines were cultured in DMEM medium and the MDA-MB-231 line was incubated in Leibowitz L-15 medium supplemented with 15% foetal bovine […]. […] Where the nature of the tumour process requires, application can be topical (use on the skin of active products for the treatment of melanoma and other cutaneous abnormalities of cancerous nature), which can be considered as cosmetic treatments when attempts are made to correct aesthetic defects.

The test system of a further experiment is hypertensive rats. Nature of the experiment: Arterial pressure in hypertensive rats after 8-day treatment (Table 5). The following applies: arterial pressure, hypertensive rats, 8-day treatment, 400 mg/kg oral. The experiment is classed as in vivo, rat.
A short description of experiment [1]: Levels of cholesterol, triglycerides and glucose in rats after oral treatment. The experiment is classed as in vivo, rat. The note with it: for % control CHO (cholesterol) / % control TG (triglycerides): rats, daily dose of 600 mg/kg oral, untreated controls = 100%. As for the experimental part:
FIG. 13. The four bars, from left to right respectively, show the effect of treatments with vehicle (control, first bar), OHOD at 200 mg/kg (second bar), OHOD at 400 mg/kg (third bar) and OHOD at 600 mg/kg (fourth bar) on the cholesterol levels (group of four bars to the left), triglycerides (group of four bars in the middle) and glucose (group of four bars to the right). The treatments were oral in all cases and were maintained for 30 days. The values indicated are the average obtained in 6 animals per group.
FIG. 14. Effect of treatment with vehicle (control) or with the fatty acids of the invention (600 mg/kg) on the levels of cholesterol, triglycerides and glucose. The values indicated are the average of the values obtained in 6 animals. Each group of three bars represents treatment with a different fatty acid with the left bar corresponding to cholesterol, the middle bar to triglycerides and the right bar to glucose.
Metabolic diseases form a set of pathologies characterised by the accumulation or deficit of certain molecules (cholesterol, triglycerides, glucose, etc.) in the serum or tissues. These changes are the reflection of dysfunctions that are normally associated with errors in the activity of certain enzymes or in the control of these proteins. Among the most important metabolopathies are hypercholesterolemia (elevated levels of cholesterol), hypertriglyceridemia (elevated levels of triglycerides) and diabetes (elevated levels of glucose). These pathologies have high rates of incidence, morbidity and mortality, so that treatment is a first order necessity. […] For these experiments, the dose of fatty acid indicated (0, 200, 400 and 600 mg/kg) was supplied daily via the oral route. At the end of the treatment (30 days), blood was sampled from control and treated animals (n=6) and the levels of cholesterol, triglycerides and glucose were determined using standard colorimetric methods.
In a further experiment, the effect of various molecules at a single dose (600 mg/kg) was investigated. […] In this sense, modification on the α-carbon and the double bond in cis configuration are crucial elements for producing the therapeutic effect indicated above. […] Finally, the effect of α-derivatives of cis-monounsaturated fatty acids on the prevention of obesity was investigated. For this, a model of rat obesity induced by a cafeteria diet, where the hypercaloric food increases the weight of the animals very markedly, was used. There were various experimental groups (see Table 3), each of which consisted of 6 female Wistar Kyoto rats of 250-300 g in weight. All the animals received a standard diet for 2 weeks. In addition, 2 of the groups received an oral preventative pre-treatment of vehicle and the other groups received 300 mg/kg of the fatty acids indicated below. Afterwards, one of the control groups was maintained on a standard diet (lean control) and the other was fed on a cafeteria diet (obese control). The treated animal groups were fed on the cafeteria diet. Preventative pre-treatment was maintained for all the groups. After two weeks on these diets, the lean control group had increased their body weight by an average of 16±16 g, while the obese control group had increased their body weight by an average of 43±17 g (statistically significance difference, p<0.01).

Experiment [2] in a line: Body weight of rats on cafeteria diet, no pre-treatment (Table 5). It is filed as in vivo, rat. The note with it: cafeteria diet for 2 weeks, 300 mg/kg daily oral, no pre-treatment. An excerpt:
The weight of treated animals was statistically less than the weight of obese control rats and statistically indistinguishable from that of lean control rats.

Where [3] appears, read: OHOD 200, 400, 600 mg/kg oral daily, 30 days, Sprague-Dawley rats, p<0.05.

Consider `CCCCCCCC/C=C\CCCCCCC(OC)C(=O)O` (stereo not drawn) [MOOD, α-Methoxy-cis-Δ9-octadecenoic], for which the IC50 with A549 cells stood at 61 µM. For the same compound, the concentration for half-maximal inhibition (IC50) with SF767 human tumour cells was 73 µM. Moreover, the “PA (control 214 mmHg)” value in the experiment on hypertensive rats is 142 mmHg. Further, in experiment [1], the “% control CHO (cholesterol)” value was found to be 65 % control and the “% control TG (triglycerides)” value stood at 64 % control. Also, the “Body weight (g) (control = 311 g)” value in experiment [2] is 279 g.

For the compound `CCCCCCCC/C=C\CCCCCCC(O)C(=O)[O-].[Na+]` (centres unmarked) [Na-OHOD], the IC50 in the experiment on A549 cells was 47 µM. Also, in the experiment on SF767 human tumour cells, the IC50 was 52 µM. For the same compound, the “PA (control 214 mmHg)” value with hypertensive rats was 128 mmHg. In addition, in experiment [1], the “% control CHO (cholesterol)” value turned out to be 51 % control and the “% control TG (triglycerides)” value came out at 32 % control. Further, the “Body weight (g) (control = 311 g)” value in experiment [2] is listed as 281 g.

For the compound `CCCCCCCC/C=C\CCCCCCC(O)C(=O)O` (stereo not drawn) [OHOD, α-Hydroxy-cis-Δ9-octadecenoic], in the experiment on A549 cells (A549, Lung), the Anti-tumour effect result was “+++” and the Mechanism of action result was “P D”. The “effect on tumour cells at 200 to 400 μM” value in the experiment on A549 cells (Doses of 200 to 400 μM, A549) is “total elimination of tumour cells”. Also, the IC50 in the experiment on A549 cells came to 62 µM. In the experiment with SF767 human tumour cells (SF-767, Glioma), the Anti-tumour effect entry is listed as “++” and the Mechanism of action result is “D”. The IC50 in the experiment with SF767 human tumour cells is 71 µM. In addition, the “PA (control 214 mmHg)” value with hypertensive rats is 146 mmHg. In experiment [1] (setting [3]), the cholesterol levels result was “significant reductions”, the glucose levels result is “significant reductions” and the triglycerides levels result is listed as “significant reductions”. Also, in experiment [1], the “% control CHO (cholesterol)” value is on record as 55 % control and the “% control TG (triglycerides)” value amounted to 38 % control. In addition, the “Body weight (g) (control = 311 g)” value in experiment [2] came to 292 g.

Usually IC50 stands for the midpoint of a concentration-inhibition curve.
